Source: PMC12607321, “Sumac Polyphenols as Pan-Herpesvirus Inhibitors” (International Journal of Molecular Sciences, 2025)
Values after ≈ are worked out from the molar mass of the structure shown. Values joined by “and” are separate entries in the source; they are usually repeats but may differ in a detail not shown here. Equal entries are not always repeated. Where two headings read alike, the source gives them in different places.

How the values were obtained:
[1] = in vitro; details: human
[2] = test system: HIV-1 (HIVIIIB); experiment: microbe, parasite or virus in culture; format: cell-based; details: Human immunodeficiency virus 1, MT4; HIV-1 IIIB in MT-4 cells
[3] = Cytotoxicity (MTT) in B95-8 cells; format: cell-based, cotton-top tamarin (Saguinus oedipus); details: cotton-top tamarin (Saguinus oedipus)
Experimental: (§1) In each virus–cell system, cytotoxicity ranges were determined for polyphenols and reference compounds using MTT assay. Half-maximal cytotoxic concentrations (CC50) were determined from the curves of the dependence of the proportion of cells retaining viability after incubation with the compound (relative to the number of cells incubated in the absence of the compound) on its concentration, using nonlinear regression equations (4 parameters).
(§2) To assess cytotoxicity, B95-8 cells (5 × 10^5 per 1 mL) were incubated with polyphenols at 37 °C in an atmosphere of 5% CO2 for 72 h. The experiment was then carried out as described in Section 4.3.5.

[4] = test system: CMV (strain AD169); experiment: Anti-CMV, post-inoculation setup: inhibition of infectious virus production (plaques from conditioned medium) in HELF; format: cell-based, human cytomegalovirus
[5] = test system: CMV (strain AD169); experiment: Anti-CMV, pre-inoculation setup (plaques) in HELF; format: cell-based, human cytomegalovirus
[6] = test system: CMV (strain AD169); experiment: Anti-CMV, post-inoculation setup: inhibition of intracellular replication (cells stained for viral proteins) in HELF; format: cell-based, human cytomegalovirus
[7] = in vitro; details: human; remark: listed apart in the source
[8] = test system: EBVB95-8; experiment: Inhibition of EBV replication in B95-8 cells (EBV genomic DNA, real-time PCR); format: cell-based, Epstein–Barr virus; details: for IC50: human gammaherpesvirus 4, B-95-8, 48 h, read-out: IC50, Inhibition on EBV Replication
[9] = test system: HSV-2BH; experiment: Antiviral activity in Vero E6 cells infected with HSV-2 (cytopathic effect); format: cell-based
[10] = test system: influenza A virus/California/07/2009 (H1N1) pdm; experiment: microbe, parasite or virus in culture; format: cell-based; details: for IC50: IAV H1N1pdm in MDCK cells
[11] = test system: B95-8 cells; experiment: Cytotoxicity (MTT) in B95-8 cells; format: cell-based, cotton-top tamarin (Saguinus oedipus); details: B95-8 cells, MTT, 72 h
Experimental: as §1, §2

[12] = test system: MDCK cells; details: MTT
[13] = test system: Vero E6 cells; experiment: Cytotoxicity (MTT) in Vero E6 cells (HSV system); format: cell-based
[14] = test system: HSV-1L2; experiment: Antiviral activity in Vero E6 cells infected with HSV-1 (cytopathic effect); format: cell-based
[15] = Cytotoxicity (MTT) in Vero E6 cells (HSV system); format: cell-based; details: African green monkey
[16] = Cytotoxicity (MTT) in Vero E6 cells (SARS-CoV-2 system); format: cell-based; details: African green monkey
Experimental: First, we performed biological testing of Rutan and geraniin against IAV and SARS-CoV-2. […] In addition, we evaluated geraniin against SARS-CoV-2 (in Vero E6 cells), and HIV-1 (in MT-4 cells) to confirm its activity. In all experiments three parameters were determined: concentrations of a drug that suppressed virus replication (IC50) or decreased cell viability (CC50) by 50% as well as their ratio—the selectivity index (SI, CC50/IC50 [123]).
as §1

[17] = test system: SARS-CoV-2 (HCoV-19/Russia/Moscow-PMVL-12/2020, EPI_ SL_572398); experiment: microbe, parasite or virus in culture; format: cell-based; details: for IC50: Severe acute respiratory syndrome coronavirus 2, Vero C1008; for Δ(lgTCID50)max: maximum difference in virus titers, Vero E6 cells
[18] = in vitro; details: dog
[19] = test system: CMVTowne strain; design: method as in ref 35 (Kim et al.); details: human foreskin fibroblasts, ref 35 (Kim et al.); cited from earlier work
[20] = Cytotoxicity (MTT) in HELF cells; details: human
[21] = test system: IAV; details: cited from earlier work
[22] = test system: SARS-CoV-2; design: method as in doi:10.2139/ssrn.4000447; details: geraniin isolated from Elaeocarpus sylvestris; cited from earlier work
[23] = test system: HIV-1; design: method as in ref 103 (Notka et al.); details: ref 103 (Notka et al.); cited from earlier work
[24] = Human betaherpesvirus 5, post-inoculation setup, CMV AD169 in HELF
[25] = Human alphaherpesvirus 2, Vero C1008, HSV-2BH, Vero E6, 0.1 PFU/cell, read-out: IC50
[26] = Human alphaherpesvirus 1, Vero C1008, HSV-1L2, Vero E6, 0.1 PFU/cell, read-out: IC50
[27] = Influenza A virus, H1N1, read-out: IC50
[28] = Human betaherpesvirus 5, AD169, HELF

Cc1cn([C@H]2C[C@H](N=[N+]=[N-])[C@@H](CO)O2)c(=O)[nH]c1=O [Azidothymidine, reference compound]
CC50 [1]: 3.6 mg/L (≈ 13.5 µM) | IC50 [2]: 0.002 mg/L (≈ 0.00748 µM)

Nc1nc(O)c2ncn(COC(CO)CO)c2n1 [Ganciclovir, reference compound]
CC50 at 72 h [3]: > 1000 mg/L | IC50 [4, 24]: < 0.1 mg/L | SI, Pre-Inoculation Setup ([5]; pre-inoculation setup, CC50/IC50): No activity | IC50, Pre-Inoculation Setup ([5]; pre-inoculation setup, CMV AD169 in HELF): No activity | IC50 [6, 24]: 0.22 mg/L (≈ 0.862 µM) | CC50 at 72 h [7]: 185 mg/L (≈ 725 µM) | IC50 [8]: 100 mg/L (≈ 392 µM)

O=C(OC[C@H]1O[C@@H](OC(=O)c2cc(O)c(O)c(O)c2)[C@H](OC(=O)c2cc(O)c(O)c(O)c2)[C@@H](OC(=O)c2cc(O)c(O)c(OC(=O)c3cc(O)c(O)c(O)c3)c2)[C@@H]1OC(=O)c1cc(O)c(O)c(O)c1)c1cc(O)c(O)c(O)c1 [R6, 3-bis-O-galloyl-1,2,4,6-tetra-O-galloyl-β-D-glucose]
IC50 ([9]; HSV-2BH, Vero E6, 0.1 PFU/cell): 31.25 mg/L (≈ 28.6 µM) | IC95 ([9]; HSV-2BH, Vero E6, 0.1 PFU/cell): 50.0 mg/L (≈ 45.8 µM) | Δ(lgTCID50)max [10]: 1.0 | IC50 [10]: >50 mg/L | CC50 [11]: >20 mg/L | CC50 [12]: 93.13 mg/L (≈ 85.2 µM) | CC50 [13]: 69.62 mg/L (≈ 63.7 µM) | IC50 ([14]; HSV-1L2, Vero E6, 0.1 PFU/cell): 25.0 mg/L (≈ 22.9 µM) | IC95 ([14]; HSV-1L2, Vero E6, 0.1 PFU/cell): >25.0 mg/L

O=C(O)P(=O)(O)O [Foscarnet, reference compound]
IC95 ([9]; HSV-2BH, Vero E6, 0.1 PFU/cell): 31.25 mg/L (≈ 248 µM) | IC50 [9, 25]: 7.8 mg/L (≈ 61.9 µM) | CC50 [15]: > 125 mg/L | IC95 ([14]; HSV-1L2, Vero E6, 0.1 PFU/cell): 62.5 mg/L (≈ 496 µM) | IC50 [14, 26]: 15.6 mg/L (≈ 124 µM)

2,4-bis-O-galloyl-1,3,6-tri-O-galloyl-β-D-glucose [R7]
IC50 [9]: 8.32 mg/L | IC95 [9]: 31.25 mg/L | Δ(lgTCID50)max [10]: 2.75 | IC50 [10]: 2.13 mg/L | CC50 [11]: 33 mg/L | CC50 [12]: 191.01 mg/L | CC50 [13]: 165.00 mg/L | IC50 [14]: 5.95 mg/L | IC95 [14]: 8.32 mg/L

O=C(OC[C@H]1O[C@@H](OC(=O)c2cc(O)c(O)c(O)c2)[C@H](OC(=O)c2cc(O)c(O)c(OC(=O)c3cc(O)c(O)c(O)c3)c2)[C@@H](OC(=O)c2cc(O)c(O)c(OC(=O)c3cc(O)c(O)c(O)c3)c2)[C@@H]1OC(=O)c1cc(O)c(O)c(OC(=O)c2cc(O)c(O)c(O)c2)c1)c1cc(O)c(O)c(O)c1 [R8, 2,3,4-bis-O-galloyl-1,6-di-O-galloyl-β-D-glucose]
IC50 ([9]; HSV-2BH, Vero E6, 0.1 PFU/cell): 31.25 mg/L (≈ 22.4 µM) | IC95 ([9]; HSV-2BH, Vero E6, 0.1 PFU/cell): 62.5 mg/L (≈ 44.7 µM) | Δ(lgTCID50)max [10]: 4.25 | IC50 [10]: 0.8 mg/L (≈ 0.573 µM) | CC50 [11]: >20 mg/L | CC50 [12]: 233 mg/L (≈ 167 µM) | CC50 [13]: 106.00 mg/L (≈ 75.9 µM) | IC50 ([14]; HSV-1L2, Vero E6, 0.1 PFU/cell): 10.0 mg/L (≈ 7.16 µM) | IC95 ([14]; HSV-1L2, Vero E6, 0.1 PFU/cell): 31.25 mg/L (≈ 22.4 µM)

CC(C)(C)[C@H](NC(=O)C(F)(F)F)C(=O)N1C[C@H]2[C@@H]([C@H]1C(=O)N[C@H](C#N)C[C@@H]1CCNC1=O)C2(C)C [Nirmatrelvir, reference compound]
CC50 [16]: > 20 mg/L | IC50 [17]: 0.1 mg/L (≈ 0.2 µM) | Δ(lgTCID50)max [17]: 6.0

CCOC(=O)C1=C[C@@H](OC(CC)CC)[C@H](NC(C)=O)[C@@H](N)C1 [Oseltamivir, reference compound]
Δ(lgTCID50)max [10]: 6.0 | IC50 [10, 27]: 0.02 mg/L (≈ 0.064 µM) | CC50 [18]: > 10 mg/L

O=C(OC[C@H]1O[C@@H](OC(=O)c2cc(O)c(O)c(O)c2)[C@H](OC(=O)c2cc(O)c(O)c(O)c2)[C@@H](OC(=O)c2cc(O)c(O)c(O)c2)[C@@H]1OC(=O)c1cc(O)c(O)c(O)c1)c1cc(O)c(O)c(O)c1 [R5, 1,2,3,4,6-penta-O-galloyl-β-D-glucose]
IC95 [9]: 25.0 mg/L (≈ 26.6 µM) | IC50 ([9]; Human alphaherpesvirus 2, Vero C1008, read-out: IC50): 12.5 mg/L (≈ 13.3 µM) | Δ(lgTCID50)max [10]: 1.5 | IC50 [10, 27]: 8.85 mg/L (≈ 9.41 µM) | CC50 [11]: 85 mg/L (≈ 90.4 µM) | IC50 [4, 28]: 6.4 mg/L (≈ 6.8 µM) | CC50 [15]: 188 mg/L (≈ 200 µM) | CC50 [18]: 86.3 mg/L (≈ 91.8 µM) | IC50 [5, 28]: 2.2 mg/L (≈ 2.34 µM) | IC95 [14]: 25.0 mg/L (≈ 26.6 µM) | IC50 ([14]; Human alphaherpesvirus 1, Vero C1008, read-out: IC50): 12.5 mg/L (≈ 13.3 µM) | activity against CMV (in words) [19]: failed to detect the activity | reduction of the number of infected HELF [6]: 71% and 86% | IC50 [6, 28]: 7.4 mg/L (≈ 7.87 µM) | CC50 at 72 h [20]: 150 mg/L (≈ 159 µM) | decrease of the level of intracellular viral DNA ([8]; 10 μg/mL, 48 h, B95-8 cells): 39 ± 5% | IC50 [8]: > 10 mg/L

O=C1O[C@H]2C3OC(=O)c4cc(O)c(O)c(O)c4-c4c(cc(O)c(O)c4O)C(=O)OC[C@H]2O[C@@H](OC(=O)c2cc(O)c(O)c(O)c2)[C@@H]3OC(=O)c2cc(O)c(O)c3c2[C@@H]2C1=CC(=O)[C@](O)(O3)C2(O)O [Geraniin, (1R,7R,26R,28S,29R,38R)-1,13,14,15,18,19,20,34,35,39,39-Undecahydroxy-2,5,10,23,31-pentaoxo-6,9,24,27,30,40-hexaoxaoctacyclo [34.3.1.0~4,38~.0~7,26~.0~8,29~.0~11,16~.0~17, 22~.0~32,37~]tetraconta-3,11,1 3,15,17,19,21,32,34,36-decaen-28-yl 3,4,5-trihydroxybenzoate]
IC95 ([9]; HSV-2BH, Vero E6, 0.1 PFU/cell): 6.25 mg/L (≈ 6.56 µM) | IC50 [9, 25]: 0.39 mg/L (≈ 0.409 µM) | Δ(lgTCID50)max [10]: 4.5 | IC50 [10, 27]: 10.8 mg/L (≈ 11.4 µM) | CC50 at 72 h ([3]; B95-8 cells, MTT, 72 h, read-out: CC50): 63 mg/L (≈ 66.1 µM) | result for geraniin against IAV compared with IC50 ([21]; ref 72 (Joo et al.)): 5.3 mg/L | result for geraniin against IAV compared with IC50 ([21]; ref 96 (Choi et al.)): 34 mg/L | CC50 [16]: 65.4 mg/L (≈ 68.7 µM) | concentration range suppressing virus replication [22]: 1 to 25 µg/mL | CC50 [15]: 65.9 mg/L (≈ 69.2 µM) | CC50 [18]: 288 mg/L (≈ 302 µM) | CC50 [1]: 41 mg/L (≈ 43 µM) | IC95 ([14]; HSV-1L2, Vero E6, 0.1 PFU/cell): 1.56 mg/L (≈ 1.64 µM) | IC50 [14, 26]: 1.2 mg/L (≈ 1.26 µM) | IC50 [2]: 1.6 mg/L (≈ 1.68 µM) | activity against CMV (in words) ([6]; CMV AD169 in HELF): did not interfere | IC50 [23]: 0.46 mg/L (≈ 0.483 µM) | activity against EBV (in words) ([8]; B95-8 cells): did not interfere | IC50 ([17]; SARS-CoV-2 in Vero E6 cells, read-out: IC50): 5.2 mg/L (≈ 5.46 µM) | Δ(lgTCID50)max [17]: 4.75
